Test results from patent US5187157A, “Peptide boronic acid inhibitors of trypsin-like proteases” (Du Pont Merck Pharmaceutical Company, priority 1988, dated 1993).

Key:
chymotrypsin = chymotrypsin (Bos taurus, UniProt P00766); settings: literature; cited from earlier work
rats = assay: Survival after thrombin infusion following oral dosing; type: in vivo; settings: 5 mg/kg orally in water; 500 units/kg thrombin infused thirty to sixty minutes later; water controls: all fourteen died
Description: Thirty to sixty minutes later, all rats received an infusion of 500 units/kg thrombin over a period of one minute. All fourteen rats given only water died within ten minutes of the thrombin infusion. In contrast only 8 out of 17 rats treated with the inhibitor-containing water died within ten minutes, and the remainder survived one hour, at which time they were euthanized.

Sprague Dawley CD Rats = assay: Inhibition of Blood Coagulation Following In Vivo Oral Dosing (thrombin times of plasma)
Procedure: Male rats (Sprague Dawley CD Rats, 130-140 g, supplied by Charles River Labs, Inc., Wilmington, MA) were anesthetized with sodium pentobarbital (50 mg/kg, i.p.). A midline incision was made on the ventral surface of the neck, and a polyethylene catheter was inserted in one of the carotid arteries and exteriorized at the back of the neck. After recovery from anesthesia, control blood samples were taken from the carotid artery catheter, anticoagulated with sodium citrate, and centrifuged (2000×g, 10 minutes). Plasma was transferred to plastic tubes and kept on ice until it was assayed. Thrombin times were measured using a fibrometer, as described in Examples 125-127.
The vehicle employed was 5% dimethylsulfoxide in saline. Blood samples were taken at various times after oral dosing and assayed as described above. When clotting time exceeded 300 seconds, it is reported below as >300.

Male Lewis rats = assay: In Vivo Inhibition of Blood Coagulation Following Oral, Colonic and Rectal Administration; settings: mean for 3 rats
Procedure: Male Lewis rats weighing between 300-350 g were anesthetized with sodium pentobarbitol (50 mg/kg, i.p.) and the jugular vein was cannulated using a silastic tubing attached to a polyethylene 50 tubing. The tubing was exteriorized at the back of the neck and attached to a syringe through a stop cock. […] The blood samples were then transferred into vacutainers containing citrate buffer. Also, after each collection the cannula was flushed with saline. The blood samples were then centrifuged immediately (2500 rpm for 15 min) and 0.2 ml of the plasma samples were used for clotting time measurements. The clotting time measurements were carried out using a fibrometer as follows. First, plasma (0.2 ml) was placed in a fibro cup, and pH 7.4 Tris buffer (50 microliters) was added. The plasma buffer solution was incubated at 37° C. for 1 min, 50 microters of a 24 μ/ml thrombin solution in Tris buffer was then added, and clotting time in seconds was measured. When clotting time exceeded 300 seconds, it is reported below as >300.
The jugular vein-cannulated rats were allowed to recover from anesthesia before they were dosed orally. The protease inhibitor Ac-(D)Phe-Pro-boroArg--OH aqueous solution, consisting of 3 mg of inhibitor per kg weight of rat (approximately 1 mg/rat) in a volume of 0.75 ml of water per kg of rat, was administered by gavage.
A 3 cm incision was made in the abdomen of the jugular vein-cannulated rats while they were still under anesthesia. The colon was located and was tied off at both the beginning and the end. The protease inhibitor Ac-(D)Phe-Pro-boroArg--OH aqueous solution, consisting of 3 mg of inhibitor per kg weight of rat (approximately 1 mg/rat) in a volume of 1 ml of water per kg weight of rat, was injected at the beginning into the colon cavity. The incision was closed using wound clips.
The procedure for rectal administration in the jugular vein-cannulated rats was as described by Kamiya et al., J. Pharm. Sci., 71: 621 (1982). In brief, a device was made consisting of a 0.89 cm and a 0.71 cm silicon rubber septa connected by a 2 cm length of wire. This device was inserted into the rectum of the rat, the large septum first, and glued to the annus using suitable glue. Dosing was accomplished by injection through the exposed septum. The rectal dose was 3 mg of the protease inhibitor Ac-(D)Phe-Pro-boroArg--OH per kg weight of rat (approximately 1 mg/rat) in a volume of 0.6 ml of water per kg of rat.

normal rabbit plasma = assay: Thrombin times (TT), blood coagulation in vitro; type: biochemical; settings: thrombin 4 μ/ml
Procedure: A mixture of 0.2 ml of normal rabbit plasma and 0.05 ml of buffer containing the inhibitor at 6 times the desired final concentration was warmed to 37° C. Clotting was initiated by addition of thrombin (0.05 ml at 6 times the final concentration). The thrombin used was purchased from Sigma Chemical Company (No. T-6634, activity 1190 NIH units per mg protein) and prepared in buffer. The buffer employed for both the inhibitor and the thrombin was 0.1 M Tris buffer (12.10 g/L), containing 0.154 M NaCl (8.84 g/L) and 2.5 mg/ml bovine serum albumin, pH 7.4. The clotting times, measured in seconds, were determined using a fibrometer. The effects of the inhibitor on blood clotting times compared with the blood clotting times of controls run in the absence of inhibitors, are shown in Table 6. Values represent the average of at least three determinations.

CC(=O)N[C@@H](Cc1ccccc1)B(O)O [(R)-1-acetamido-2-phenylethane boronic acid]
4 µM: Ki (chymotrypsin)

CC(=O)N[C@H](Cc1ccccc1)C(=O)N1CCC[C@H]1C(=O)N[C@@H](CCCN=C(N)N)B(O)O.Cl [Ac-(D)Phe-Pro-boroArg-OH, Ac-(D)Phe-Pro-boroArg-OH.HCl]
66.4 s: Clotting Time (Male Lewis rats; rectal 3 mg/kg, 0 hr)
57.3 s: Clotting Time (Male Lewis rats; oral 3 mg/kg, 0.00 hr)
59.4 s: Clotting Time (Male Lewis rats; colonic 3 mg/kg, 0.0 hr)
62.4 ± 7.2 s: Thrombin Times (normal rabbit plasma; inhibitor 100 nM, mean ± standard deviation)
54 ± 29 s: clotting times (thrombin times) (Sprague Dawley CD Rats; oral gavage 2 mg, 4 hr, mean ± standard deviation)
46 ± 3 s: clotting times (thrombin times) (Sprague Dawley CD Rats; oral gavage 1 mg, 6 hr, mean ± standard deviation)
8 out of 17: rats died within ten minutes of the thrombin infusion (rats)
32.7 ± 0.8 s: Thrombin Times (normal rabbit plasma; inhibitor 50 nM, mean ± standard deviation)
47 ± 4 s: clotting times (thrombin times) (Sprague Dawley CD Rats; oral gavage 1 mg, 4 hr, mean ± standard deviation)
> 300 s: clotting times (thrombin times) (Sprague Dawley CD Rats; oral gavage 1 mg, 1 hr) | clotting times (thrombin times) (Sprague Dawley CD Rats; oral gavage 1 mg, 2 hr) | clotting times (thrombin times) (Sprague Dawley CD Rats; oral gavage 1 mg, 3 hr) | clotting times (thrombin times) (Sprague Dawley CD Rats; oral gavage 1 mg, .5 hr) | clotting times (thrombin times) (Sprague Dawley CD Rats; oral gavage 2 mg, .5 hr) | clotting times (thrombin times) (Sprague Dawley CD Rats; oral gavage 10 mg, 1 hr) | clotting times (thrombin times) (Sprague Dawley CD Rats; oral gavage 10 mg, 2 hr) | clotting times (thrombin times) (Sprague Dawley CD Rats; oral gavage 10 mg, 3 hr) | clotting times (thrombin times) (Sprague Dawley CD Rats; oral gavage 10 mg, .5 hr) | Clotting Time (Male Lewis rats; colonic 3 mg/kg, 0.5 hr) | Clotting Time (Male Lewis rats; colonic 3 mg/kg, 1.0 hr) | Clotting Time (Male Lewis rats; colonic 3 mg/kg, 2.0 hr) | Clotting Time (Male Lewis rats; colonic 3 mg/kg, 4.0 hr) | Clotting Time (Male Lewis rats; colonic 3 mg/kg, 5.0 hr) | Clotting Time (Male Lewis rats; oral 3 mg/kg, 0.25 hr) | Clotting Time (Male Lewis rats; oral 3 mg/kg, 0.50 hr) | Clotting Time (Male Lewis rats; oral 3 mg/kg, 1.00 hr) | Clotting Time (Male Lewis rats; oral 3 mg/kg, 2.00 hr) | Clotting Time (Male Lewis rats; oral 3 mg/kg, 3.00 hr) | Clotting Time (Male Lewis rats; oral 3 mg/kg, 4.00 hr) | Clotting Time (Male Lewis rats; rectal 3 mg/kg, 0.25 hr) | Clotting Time (Male Lewis rats; rectal 3 mg/kg, 0.5 hr) | Clotting Time (Male Lewis rats; rectal 3 mg/kg, 1.0 hr) | Clotting Time (Male Lewis rats; rectal 3 mg/kg, 2.0 hr) | Clotting Time (Male Lewis rats; rectal 3 mg/kg, 4.0 hr) | Thrombin Times (normal rabbit plasma; inhibitor 150 nM, terminated at 300 seconds)
44 ± 4 s: clotting times (thrombin times) (Sprague Dawley CD Rats; oral gavage 2 mg, 6 hr, mean ± standard deviation)
